From US7030113B2, “Aminobenzimidazoles as selective melanin concentrating hormone receptor antagonists for the treatment of obesity and related disorders” (Schering Corporation, priority 2003, dated 2006)

What follows are compounds tested against T1, MCH receptor (Homo sapiens, UniProt Q99705) (assay: MCH Receptor Binding Assay). Settings: membranes from CHO cells expressing the MCH receptor, [125I]-MCH, SPA; read-out: Activity Class (Ki).
T1 construct: expressed in transfected cells; host or cells: CHO cells
T1 sequence (Q99705 whole entry): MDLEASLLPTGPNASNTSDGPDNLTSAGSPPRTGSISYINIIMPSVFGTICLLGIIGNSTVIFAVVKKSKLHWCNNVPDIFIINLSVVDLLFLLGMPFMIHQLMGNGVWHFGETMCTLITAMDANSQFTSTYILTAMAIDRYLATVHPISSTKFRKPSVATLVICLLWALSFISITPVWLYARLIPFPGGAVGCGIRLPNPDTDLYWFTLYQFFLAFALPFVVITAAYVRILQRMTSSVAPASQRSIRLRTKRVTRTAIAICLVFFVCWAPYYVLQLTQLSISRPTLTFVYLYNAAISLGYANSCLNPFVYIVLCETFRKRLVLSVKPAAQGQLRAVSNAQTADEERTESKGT
Description: MCH Receptor Binding Assay:
Membranes from CHO cells expressing the MCH receptor were prepared by lysing cells with 5 mM HEPES for 15 min at 4C. Cell lysates were centrifuged ([…], 15 min) and the pellet was resuspended in 5 mM HEPES. For each 96-well plate (Microlite, Dynex Technologies), 1 mg of cell membranes were incubated with 10 mg of wheat germ agglutinin SPA beads (Amersham) for 5 min at 4 C in a volume of 10 ml of binding buffer (25 mM HEPES, 10 mM MGCl2, 10 mM NaCl, 5 mM MnCl2, 0.1% BSA). The membrane/bead mixture was centrifuged (1500×g, 3.5 min), the supernatant was aspirated, and the pellet was resuspended in 10 ml binding buffer. The centrifugation, aspiration and resuspension were then repeated. The membrane/bead mixture (100 μl) was then added to 96-well plates containing 50 μl of 500 pM [^125I]-MCH (NEN) and […] of the appropriate concentration of compound (4× the desired final concentration). Nonspecific binding was determined by including 1 μM MCH in the binding reaction. The binding reaction was incubated at room temperature for 2 h. Plates were then analyzed in a TOPCOUNT microplate scintillation counter (Packard). Data was analyzed and Ki values were determined using GraphPad Prism.
With CN1CCN(CCCN(c2nc3cc(F)c(C(F)(F)F)cc3[nH]2)[C@@H]2CC[C@]3(c4ccc(C#N)cc4)CC23)CC1 (some centres unmarked) [Example 35a] the Ki was under 10 nM.
Work on CN1CCN(CCCN(c2nc3cc(F)c(Cl)cc3[nH]2)[C@@H]2CC[C@]3(c4cccc(Br)c4)CC23)CC1 (some centres unmarked) [Example 30d] yielded a Ki of 10 to 30 nM.
CN1CCN(CCCN(c2nc3cc(Cl)c(Cl)cc3[nH]2)[C@@H]2CC[C@]3(c4cccc(C#N)c4)C[C@H]23)CC1 [Example 30a] was tested, and the Ki was under 10 nM.
CN1CCN(CCCN(c2nc3cc(F)c(F)cc3[nH]2)[C@@H]2CC[C@]3(c4cccc(CN5CCOCC5)c4)C[C@@H]3C2)CC1 [Example 10e] was tested, and the Ki was 10 to 30 nM.
With CN1CCN(CCCN(c2nc3cc(Cl)c(Cl)cc3[nH]2)[C@@H]2CC[C@]3(c4ccc(C#N)cc4)C[C@H]23)CC1 [Example 35b] the Ki was 10 to 30 nM.
Compound CS(=O)(=O)N1CCC(CN(c2nc3cc(F)c(Cl)cc3[nH]2)[C@@H]2CC[C@]3(c4cccc(C#N)c4)C[C@@H]3C2)CC1 [Example 16c] has a Ki of under 10 nM.
CN1CCN(CCCN(c2nc3cc(F)c(F)cc3[nH]2)[C@@H]2CC[C@]3(c4cccc(CN5CCCC5)c4)C[C@@H]3C2)CC1 [Example 10c] showed a Ki of 10 to 30 nM.
CN(C)Cc1cccc([C@]23CC[C@@H](N(CCCN4CCN(C)CC4)c4nc5cc(Cl)c(Cl)cc5[nH]4)C[C@H]2C3)c1 [Example 10a] gave a Ki of under 10 nM.
With CS(=O)(=O)N1CCC(CN(c2nc3cc(Cl)c(Cl)cc3[nH]2)[C@@H]2CC[C@]3(c4cccc(C#N)c4)C[C@@H]3C2)CC1 [Example 16a] the Ki was under 10 nM.
With CN(C)Cc1cccc([C@]23CC[C@@H](N(CCCN4CCN(C)CC4)c4nc5cc(F)c(F)cc5[nH]4)C[C@H]2C3)c1 [Example 10d] the Ki was over 100 nM.
Work on CN1CCN(CCCN(c2nc3cc(Cl)c(Cl)cc3[nH]2)[C@@H]2CC[C@]3(c4cccc(C=O)c4)C[C@@H]3C2)CC1 [Example 9a] yielded a Ki of 10 to 30 nM.
CN1CCN(CCCN(c2nc3cc(Cl)c(F)cc3[nH]2)[C@@H]2CC[C@]3(c4cccc(C#N)c4)C[C@@H]3C2)CC1 [Example 8c] gave a Ki of under 10 nM.
CO/N=C/c1cccc([C@]23CC[C@@H](N(CCCN4CCN(C)CC4)c4nc5cc(F)c(F)cc5[nH]4)CC2C3)c1 (some centres unmarked) [Example 24] gave a Ki of 10 to 30 nM.
For CN1CCN(CCCN(c2nc3cc(F)c(F)cc3[nH]2)[C@@H]2CC[C@]3(c4cccc(CN5CC[C@@H](O)C5)c4)CC3C2)CC1 (some centres unmarked) [Example 10f], the Ki was over 100 nM.
Work on CN1CCN(CCCN(c2nc3cc(Cl)c(Cl)cc3[nH]2)[C@@H]2CC[C@]3(c4cccc(CN5CCOCC5)c4)C[C@@H]3C2)CC1 [Example 10b] yielded a Ki of 10 to 30 nM.
In the case of CS(=O)(=O)N1CCC(CN(c2nc3cc(F)c(F)cc3[nH]2)[C@@H]2CC[C@]3(c4cccc(C#N)c4)C[C@@H]3C2)CC1 [Example 16b], the Ki is reported as 10 to 30 nM.
For CC(C)(C)OC(=O)N1CCC(CN(c2nc3cc(Cl)c(Cl)cc3[nH]2)[C@@H]2CC[C@]3(c4cccc(C#N)c4)CC3C2)CC1 (some centres unmarked) [Example 21], the Ki was over 100 nM.
Work on CN1CCN(CCCN(c2nc3cc(F)c(F)cc3[nH]2)[C@@H]2CC[C@]3(c4cccc(C#N)c4)C[C@H]23)CC1 [Example 30c] yielded a Ki of 10 to 30 nM.
N#Cc1cccc([C@]23CC[C@@H](N(CC4CCNCC4)c4nc5cc(Cl)c(Cl)cc5[nH]4)CC2C3)c1 (some centres unmarked) [Example 22] was tested, and the Ki was under 10 nM.
Compound CN1CCN(CCCN(c2nc3cc(Cl)c(F)cc3[nH]2)[C@@H]2CC[C@]3(c4ccc(C#N)cc4)C[C@H]23)CC1 [Example 35c] has a Ki of under 10 nM.
CN1CCN(CCCN(c2nc3cc(F)c(Cl)cc3n2C)[C@@H]2CC[C@]3(c4cccc(C#N)c4)CC23)CC1 (some centres unmarked) [Example 36] showed a Ki of over 100 nM.
With CN1CCN(CCCN(c2nc3cc(Cl)c(F)cc3[nH]2)[C@@H]2CC[C@]3(c4cccc(C#N)c4)C[C@H]23)CC1 [Example 30b] the Ki was under 10 nM.
CN1CCN(CCCN(c2nc3cc(F)c(F)cc3[nH]2)[C@@H]2CC[C@]3(c4cccc(C=O)c4)C[C@@H]3C2)CC1 [Example 9b] gave a Ki of 10 to 30 nM.
